Test results as given in patent publication US11396517B1, “Exo-aza spiro inhibitors of menin-MLL interaction” (Janssen Pharmaceutica NV, priority 2017, dated 2022).

Each molecule was assayed against T1, menin (Homo sapiens, UniProt O00255, T541A) (assay: Menin/MLL homogenous time-resolved fluorescence (HTRF) assay). Details: location 1; read-out: (2) location 1 Menin HTRF assay (IC50 (nM)).
T1 construct: Menin (a.a. 1-610-6×his tag)
T1 sequence (O00255 with tags, fused parts or gaps T541A): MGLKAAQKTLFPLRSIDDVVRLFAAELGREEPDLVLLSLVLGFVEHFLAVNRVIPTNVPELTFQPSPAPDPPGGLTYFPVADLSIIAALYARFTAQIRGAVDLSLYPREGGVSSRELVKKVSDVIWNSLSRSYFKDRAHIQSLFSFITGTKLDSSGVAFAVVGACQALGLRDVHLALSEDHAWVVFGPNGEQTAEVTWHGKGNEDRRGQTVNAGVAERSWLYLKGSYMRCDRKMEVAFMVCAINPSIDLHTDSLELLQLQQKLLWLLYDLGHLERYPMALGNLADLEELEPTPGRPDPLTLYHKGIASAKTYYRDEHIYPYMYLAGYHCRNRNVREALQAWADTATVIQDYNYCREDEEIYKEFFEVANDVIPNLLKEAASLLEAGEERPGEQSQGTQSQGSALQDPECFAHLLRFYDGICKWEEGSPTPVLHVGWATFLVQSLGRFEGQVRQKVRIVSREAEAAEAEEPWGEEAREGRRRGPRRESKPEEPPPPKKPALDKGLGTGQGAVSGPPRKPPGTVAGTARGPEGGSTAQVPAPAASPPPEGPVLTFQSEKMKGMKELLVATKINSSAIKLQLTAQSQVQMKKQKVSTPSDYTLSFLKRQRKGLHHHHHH
Type: binding
Procedure: 2) Menin/MLL Homogenous Time-Resolved Fluorescence (HTRF) Assay
To an untreated, white 384-well microtiter plate was added 40 nL 200× test compound in DMSO and 4 μL 2× terbium chelate-labeled menin (vide infra for preparation) in assay buffer (40 mM Tris HCl, pH 7.5, 50 mM NaCl, 1 mM DTT and 0.05% Pluronic F-127). After incubation of test compound and terbium chelate-labeled menin for 5 min at ambient temperature, 4 μL 2× FITC-MBM1 peptide (FITC-β-alanine-[…]-NH2 (SEQ ID NO: 23)) in assay buffer was added, the microtiter plate centrifuged at 1000 rpm for 1 min and the assay mixtures incubated for 15 min at ambient temperature. The relative amount of menin.FITC-MBM1 complex present in an assay mixture is determined by measuring the homogenous time-resolved fluorescence (HTRF) of the terbium/FITC donor/acceptor fluorphore pair using a BMG Pherastar plate reader (ex. 337 nm/terbium em. 490 nm/FITC em. 520 nm) at ambient temperature. The degree of fluorescence resonance energy transfer (the HTRF value) is expressed as the ratio of the fluorescence emission intensities of the FITC and terbium fluorophores (Fern 520 nm/Fem 490 nm). The final concentrations of reagents in the binding assay are […] terbium chelate-labeled menin (location 2), 75 nM FITC-MBM1 peptide and 0.5% DMSO in assay buffer. Dose-response titrations of test compounds are conducted using an 11 point, three-fold serial dilution scheme, starting typically at 25 μM (location 1) or starting typically at 10 μM (location 2).
Compound potencies were determined by first calculating % inhibition at each compound concentration according to equation 1: % inhibition=((HC−LC)−(HTRF^compound−LC))/(HC−LC))*100 (Eqn 1)
Where LC and HC are the HTRF values of the assay in the presence or absence of a saturating concentration of a compound that competes with FITC-MBM1 for binding to menin, and HTRF^compound is the measured HTRF value in the presence of the test compound. FTC and LC HTRF values represent an average of at least 16 replicates per plate.
Where Bottom and Top are the lower and upper asymptotes of the dose-response curve, respectively, IC50 is the concentration of compound that yields 50% inhibition of signal and h is the Hill coefficient.
Preparation of Terbium cryptate labeling of Menin: Menin (a.a. 1-610-6×his tag (“6×his” disclosed as SEQ ID NO: 3)) was labeled with terbium cryptate as follows. 2 mg of Menin was buffer exchanged into 1× phosphate buffered saline. 16 uM Menin was incubated with 4-fold molar excess NHS-terbium cryptate (Cisbio Bioassays, Bedford, Mass.) for 2 hours at room temperature. The labeled protein was purified away from free label by running the reaction over a Superdex 200 Increase 10/300 GL column at 0.75 ml/min. Peak fractions were collected, aliquoted and frozen at −80° C.

IC50 | SMILES
3840 nM | N#CCc1cccc(C(=O)NC2CCC3(C2)CN(c2ncnc4sc(CC(F)(F)F)cc24)C3)c1 (stereo not drawn) [Compound 18]

Same assay, conditions: location 2; read-out: (2) location 2 Menin HTRF assay (IC50 (nM))

SMILES | IC50
O=C(NC1CC2(CCN(c3ncnc4sc(CC(F)(F)F)cc34)C2)C1)c1ccccc1 (stereo not drawn) [Compound 36] | 7520 nM
FC(F)(F)Cc1cc2c(N3CCC4(CC(Nc5ccc(Cl)cc5)C4)C3)ncnc2s1 (mixture of isomers) [Compound 161] | 101 nM
FC(F)(F)Cc1cc2c(N3CCC4(CC(Nc5cccnc5)C4)C3)ncnc2s1 (single isomer, unassigned) [Compound 152] | 288 nM
O=C(NC1CC2(CCN(c3ncnc4sc(CC(F)(F)F)cc34)C2)C1)c1ccccc1 (single isomer, unassigned) [Compound 37] | 8340 nM
N#CCc1ccc(C(=O)NC2CCC3(CCN(c4ncnc5sc(CC(F)(F)F)cc45)C3)C2)cc1 (stereo not drawn) [Compound 126] | > 10000 nM
N#CCc1ccc(NC2CC3(CCN(c4ncnc5sc(CC(F)(F)F)cc45)C3)C2)c(Cl)c1 (single isomer, unassigned) [Compound 209] | 65.3 nM
Cn1cc(NC2CCC3(C2)CN(c2ncnc4sc(CC(F)(F)F)cc24)C3)cn1 (stereo not drawn) [Compound 43] | 1750 nM
N#CCc1cccc(C(=O)NC2CCC3(C2)CN(c2ncnc4sc(CC(F)(F)F)cc24)C3)c1 (stereo not drawn) [Compound 18] | 1620 nM
CNC(=O)c1ccc(NC2CC3(CCN(c4ncnc5sc(CC(F)(F)F)cc45)C3)C2)cc1C1CCN(C)CC1 (single isomer, unassigned) [Compound 231] | 208 nM
Cc1ccccc1NC1CC2(CCN(c3ncnc4sc(CC(F)(F)F)cc34)C2)C1 (mixture of isomers) [Compound 165] | 656 nM
CNC(=O)c1c(F)cc(NC2CC3(CCN(c4ncnc5sc(CC(F)(F)F)cc45)C3)C2)cc1F (single isomer, unassigned) [Compound 244] | 516 nM
N#CCc1ccc(C(=O)NC2CC3(CCN(c4ncnc5sc(CC(F)(F)F)cc45)C3)C2)cc1 (single isomer, unassigned) [Compound 11] | 3760 nM
FC(F)(F)Cc1cc2c(N3CCC4(CCC(Nc5ccccc5)C4)C3)ncnc2s1 (single isomer, unassigned) [Compound 34] | 338 nM
FC(F)(F)Cc1cc2c(N3CCC4(CC(Nc5ccccc5)C4)C3)ncnc2s1 (single isomer, unassigned) [Compound 150] | 370 nM
CNC(=O)c1ccc(NC2CCC3(C2)CN(c2ncnc4sc(CC(F)(F)F)cc24)C3)cc1 (single isomer, unassigned) [Compound 97] | 213 nM
FC(F)(F)Cc1cc2c(N3CC4(CC[C@H](NC5(c6ccccc6)CC5)C4)C3)ncnc2s1 (stereo in doubt) [Compound 113] | 164 nM
Cn1ncc2ccc(NC3CC4(CCN(c5ncnc6sc(CC(F)(F)F)cc56)C4)C3)cc21 (mixture of isomers) [Compound 206] | 224 nM
CNC(=O)c1ccc(NC2CC3(CCN(c4nc(NC)nc5sc(CC(F)(F)F)cc45)C3)C2)cc1 (single isomer, unassigned) [Compound 65] | 133 nM
N#CCc1ccc(N[C@@H]2CC[C@]3(CCN(c4ncnc5sc(CC(F)(F)F)cc45)C3)C2)cc1 (stereo in doubt) [Compound 146] | 23.7 nM
CN(C1CC2(CCN(c3ncnc4sc(CC(F)(F)F)cc34)C2)C1)S(=O)(=O)c1ccccc1 (single isomer, unassigned) [Compound 25] | 510 nM
O=C1CN(C(=O)c2ccc(NC3CC4(CCN(c5ncnc6sc(CC(F)(F)F)cc56)C4)C3)cc2)CCN1 (stereo not drawn) [Compound 104] | 16.6 nM
COc1nc(N2CC3(CCC(NCc4ccc5[nH]c(=O)[nH]c5c4)C3)C2)c2cc(CC(F)(F)F)sc2n1 (stereo not drawn) [Compound 117] | 111 nM
N#CCc1cccc(NC2CCC3(C2)CN(c2ncnc4sc(CC(F)(F)F)cc24)C3)c1 (stereo not drawn) [Compound 114] | 157 nM

More lines, now with the values ahead:

IC50 | SMILES
96 nM | N#CCc1ccc(NC2CCC3(C2)CN(c2nc(N)nc4sc(CC(F)(F)F)cc24)C3)cc1 (single isomer, unassigned) [Compound 389]
58.4 nM | O=C1Cc2ccc(N[C@H]3CCC4(C3)CN(c3ncnc5sc(CC(F)(F)F)cc35)C4)cc2N1 (single isomer, unassigned) [Compound 294]
136 nM | FC(F)(F)Cc1cc2c(N3CCC4(CC(Nc5ccc6cc[nH]c6c5)C4)C3)ncnc2s1 (single isomer, unassigned) [Compound 312]
131 nM | O=c1[nH]c2ccc(N[C@H]3CCC4(C3)CN(c3ncnc5sc(CC(F)(F)F)cc35)C4)cc2o1 (single isomer, unassigned) [Compound 297]
272 nM | CS(=O)(=O)N1CCN(CCn2c(=O)oc3cc(NC4CC5(CCN(c6ncnc7sc(CC(F)(F)F)cc67)C5)C4)ccc32)CC1 (mixture of isomers) [Compound 249]
331 nM | CNc1nc(N2CC3(CCC(Nc4ccc5oc(=O)[nH]c5c4)C3)C2)c2cc(CC(F)(F)F)sc2n1 (stereo not drawn) [Compound 401]
2160 nM | O=c1ccc(NC2CCC3(C2)CN(c2ncnc4sc(CC(F)(F)F)cc24)C3)c[nH]1 (stereo not drawn) [Compound 283]
518 nM | CS(=O)(=O)N1CCN(CCn2c(=O)oc3ccc(NC4CC5(CCN(c6ncnc7sc(CC(F)(F)F)cc67)C5)C4)cc32)CC1 (mixture of isomers) [Compound 270]
473 nM | N#Cc1cccc(S(=O)(=O)NC2CC3(CCN(c4ncnc5sc(CC(F)(F)F)cc45)C3)C2)c1 (mixture of isomers) [Compound 415]
> 10000 nM | O=C(c1cnc(NC2CC3(CCN(c4ncnc5sc(CC(F)(F)F)cc45)C3)C2)nc1)N1CCOCC1 (single isomer, unassigned) [Compound 259]
373 nM | CNc1nc(N2CC3(CCC(Nc4ccc(CC#N)cc4)C3)C2)c2cc(CC(F)(F)F)sc2n1 (stereo not drawn) [Compound 400]
433 nM | O=S(=O)(NC1CC2(CCN(c3ncnc4sc(CC(F)(F)F)cc34)C2)C1)c1cccc(C(F)(F)F)c1 (mixture of isomers) [Compound 416]
553 nM | Cc1nc(N2CC3(CCC(Nc4ccc(CC#N)cc4)C3)C2)c2cc(CC(F)(F)F)sc2n1 (racemic) [Compound 403]
217 nM | N#CCc1ccc(NC2CCC3(C2)CN(c2nc(N)nc4sc(CC(F)(F)F)cc24)C3)cc1 (single isomer, unassigned) [Compound 388]
231 nM | CNS(=O)(=O)c1ccc(N[C@@H]2CCC3(C2)CN(c2ncnc4sc(CC(F)(F)F)cc24)C3)cc1 (single isomer, unassigned) [Compound 290]
89.5 nM | CN1CCN(C(=O)c2ccc(NC3CC4(CCN(c5ncnc6sc(CC(F)(F)F)cc56)C4)C3)cc2)CC1 (single isomer, unassigned) [Compound 338]
16.8 nM | CNc1nc(N2CCC3(CC(Nc4ccc(CC#N)cc4)C3)C2)c2cc(CC(F)(F)F)sc2n1 (single isomer, unassigned) [Compound 392]
> 10000 nM | CN(C1CC2(CCN(c3ncnc4sc(CC(F)(F)F)cc34)C2)C1)S(=O)(=O)c1ccc(C(F)(F)F)cc1 (mixture of isomers) [Compound 427]
913 nM | Cc1nc(N2CCC3(CC(Nc4ccccc4)C3)C2)c2cc(CC(F)(F)F)sc2n1 (stereo not drawn) [Compound 264]
906 nM | CNc1nc(N2CC3(CCC(Nc4ccc5[nH]c(=O)[nH]c5c4)C3)C2)c2cc(CC(F)(F)F)sc2n1 (stereo not drawn) [Compound 402]
423 nM | FC(F)(F)Cc1cc2c(N3CC4(CCC(Nc5ccc6cc[nH]c6c5)C4)C3)ncnc2s1 (stereo not drawn) [Compound 284]
